Measured values reported in patent US7695931B2, “Carotenoid hydroxylase gene, method for preparing hydroxylated carotenoid, and novel geranylgeranyl pyrophosphate synthase” (Kirin Holdings Kabushiki Kaisha, priority 2003, dated 2010).
One block for each molecule: values may come before it.

How the values were obtained:
[1] = tested on: lipid peroxidation in rat brain homogenate; experiment: in vitro anti-peroxidation activity: lipid peroxidation in rat brain homogenate (TBA, A532); format: biochemical; settings: for IC50: concentration halving A532 vs non-addition group, ascorbic acid 100 μM, pH 7.4, 37° C., 1 hr, read-out: IC50 (μM), inhibitory effect on lipid peroxidation in rat brain homogenate; for inhibitory effect on lipid peroxidation (in words): rat brain homogenate, in vitro
Description: Although various carotenoids have a wide variety of physiological activities and effects, it is believed that activity to inhibit peroxidation of lipids in the living body caused by oxygen radicals is the basis for all activities/effects. Therefore, in vitro inhibitory effects of the two carotenoids synthesized in Example 14 on lipid peroxidation caused by free radicals were examined using rat brain homogenate. This assay was conducted basically according to the method of Kubo et al. (Kubo, K., Yoshitake, Y., Kumada, K., Shuto K., Nakamizo, N. “Radical scavenging action of flunarizine in rat brain in vitro”. Arch. Int. Pharmacodyn. Ther. 272, 283-295, 1984). Briefly, 0.05 ml of methanol solution of a test sample, 0.1 ml of 1 mM ascorbic acid (final concentration 100 μM) and 0.05 ml of H2O were added to 0.6 ml of 100 mM phosphate buffer (pH 7.4) and pre-incubated at 37° C. for 5 min. Then, 0.2 ml of 2.5% (w/v) rat brain homogenate was added thereto to start reaction, followed by incubation at 37° C. for 1 hr under shaking. One milliliter of a mixed solution containing 20% (w/v) trichloroacetic acid, 0.5% (w/v) 2-thiobarbituric acid and 0.2 N HCl was added to the above reaction solution to terminate the reaction. The resultant solution was boiled at 100 ° C. for 30 min for color development. After cooling, the solution was centrifuged at 3000 rpm for 5 min. Absorbance at 532 nm (A532) of the resultant supernatant was measured. The concentration of test sample which is required to decrease the A532 of test sample addition group to one half of the A532 of test sample non-addition group was calculated as IC50. This value was taken as lipid peroxidation inhibitory effect in rat brain homogenate.

lung cancer = settings: cited from earlier work; for incidence of lung cancer: carotenoid-administered mice, incidence in control mice without carotenoid administration taken as 100%
skin cancer = settings: carotenoid-administered mice; incidence in control mice without carotenoid administration taken as 100%; cited from earlier work
liver cancer = settings: carotenoid-administered mice; incidence in control mice without carotenoid administration taken as 100%; cited from earlier work
[2] = compared with β-carotene; cited from earlier work

- IC50 [1]: 4.8 µM
Molecule: CC1=C(/C=C/C(C)=C/C=C/C(C)=C/C=C/C=C(C)/C=C/C=C(C)/C=C/C2=C(C)C(=O)CC(O)C2(C)C)C(C)(C)C(O)CC1=O (single isomer, unassigned) [2,2′-Dihydroxycanthaxanthin, 2,2′-dihydroxy-β,β-carotene-4,4′-dione]
- inhibitory effect on lipid peroxidation (in words) [1]: strong inhibitory effects on lipid peroxidation

- IC50 [1]: 8.1 µM
Molecule: CC1=C(/C=C/C(C)=C/C=C/C(C)=C/C=C/C=C(C)/C=C/C=C(C)/C=C/C2=C(C)C(=O)CC(O)C2(C)C)C(C)(C)CCC1=O (single isomer, unassigned) [2-Hydroxycanthaxanthin, 2-hydroxy-β,β-carotene-4,4′-dione]
- inhibitory effect on lipid peroxidation (in words) [1]: strong inhibitory effects on lipid peroxidation

- IC50 [1]: 50 µM
Molecule: CC1=C(/C=C/C(C)=C/C=C/C(C)=C/C=C/C=C(C)/C=C/C=C(C)/C=C/C2=C(C)C(=O)CCC2(C)C)C(C)(C)CCC1=O [Canthaxanthin]

Molecule: CC1=C(/C=C/C(C)=C/C=C/C(C)=C/C=C/C=C(C)/C=C/C=C(C)/C=C/C2=C(C)C(=O)[C@@H](O)CC2(C)C)C(C)(C)C[C@H](O)C1=O [astaxanthin]
- incidence of lung cancer (lung cancer): 70%
- incidence of skin cancer (skin cancer): 100%
- incidence of liver cancer (liver cancer): 30%

Molecule: CC1=C[C@H](O)CC(C)(C)[C@H]1/C=C/C(C)=C/C=C/C(C)=C/C=C/C=C(C)/C=C/C=C(C)/C=C/C1=C(C)C[C@@H](O)CC1(C)C [lutein]
- incidence of lung cancer (lung cancer): 70%
- incidence of liver cancer (liver cancer): 50%

Molecule: CC(C)=CCC/C(C)=C/C=C/C(C)=C/C=C/C(C)=C/C=C/C=C(C)/C=C/C=C(C)/C=C/C=C(\C)CCC=C(C)C [lycopene]
- inhibition of lung cancer (in words) (lung cancer; comparison of the three carcinogenesis models): highly effective in inhibiting lung cancer
- incidence of skin cancer (skin cancer): 10%
- incidence of liver cancer (liver cancer): 100%

Molecule: CC1=CCCC(C)(C)C1/C=C/C(C)=C/C=C/C(C)=C/C=C/C=C(C)/C=C/C=C(C)/C=C/C1=C(C)CCCC1(C)C (stereo not drawn) [α-carotene]
- incidence of lung cancer (lung cancer): 40%
- incidence of liver cancer (liver cancer): 50%

- IC50 [1]: > 100 µM
Molecule: CC1=C(/C=C/C(C)=C/C=C/C(C)=C/C=C/C=C(C)/C=C/C=C(C)/C=C/C2=C(C)CCCC2(C)C)C(C)(C)CCC1 [β-Carotene, β-carotene]
- incidence of lung cancer (lung cancer): 139%
- incidence of liver cancer (liver cancer): 70%

Molecule: CC1=C(/C=C/C(C)=C/C=C/C(C)=C/C=C/C=C(C)/C=C/C=C(C)/C=C/C2=C(C)C[C@@H](O)CC2(C)C)C(C)(C)CCC1 [β-cryptoxanthin]
- intake ratio into the living body relative to β-carotene [2]: 10 times

Molecule: fucoxanthin
- incidence of skin cancer (skin cancer): 10%
- incidence of liver cancer (liver cancer): 30%
